Test results taken from ChEMBL document CHEMBL1201862, “PubChem BioAssay data set” (2004).
Active and inactive are the calls of the source.

Legend:
Mu-type opioid receptor = Mu-type opioid receptor (Homo sapiens, UniProt P35372); experiment: (§1) Counterscreen for agonists of heterodimerization of the mu 1 (OPRM1) and delta 1 (OPRD1) opioid receptors: Luminescence-based cell-based high throughput dose response assay to identify agonists of OPRM1 homodimerization.; assay type: functional
[1] = target: 5-hydroxytryptamine receptor 5A (Homo sapiens, UniProt P47898); experiment: Counterscreen for agonists of OPRM1-OPRD1 heterodimerization: luminescence-based cell-based high throughput dose response assay to identify agonists of 5-hydroxytryptamine (serotonin) 5A receptor (HTR5A). [Related pubchem assays (depositor defined):AID504326, AID504355, AID504692, AID504904, AID504905]; assay type: functional
[2] = target: Delta-type opioid receptor (Homo sapiens, UniProt P41143); experiment: as §1, with “of OPRD1” for “of OPRM1”, “homodimerization. [Related pubchem assays (depositor defined):AID504326, AID504355, AID504692, AID504904, AID504905]” for “homodimerization.”; assay type: functional
Cytochrome P450 2C9 = Cytochrome P450 2C9 (Homo sapiens, UniProt P11712)
Nonstructural protein 1 = Nonstructural protein 1 (Influenza A virus, UniProt Q194T2); assay type: functional, Influenza A virus (A/California/07/2009(H1N1))
[3] = target: T1, RNA-binding protein pos-1 (Caenorhabditis elegans, UniProt G5EF15); experiment: inhibitors of POS-1/mex-3 RNA binding, dose response, biochemical, fluorescence polarization (AID 1964);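 note: purified POS-1 fused to maltose binding protein made in E. coli; potency of compounds blocking POS-1 binding to fluorescent RNA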
T1 sequence (G5EF15 whole entry): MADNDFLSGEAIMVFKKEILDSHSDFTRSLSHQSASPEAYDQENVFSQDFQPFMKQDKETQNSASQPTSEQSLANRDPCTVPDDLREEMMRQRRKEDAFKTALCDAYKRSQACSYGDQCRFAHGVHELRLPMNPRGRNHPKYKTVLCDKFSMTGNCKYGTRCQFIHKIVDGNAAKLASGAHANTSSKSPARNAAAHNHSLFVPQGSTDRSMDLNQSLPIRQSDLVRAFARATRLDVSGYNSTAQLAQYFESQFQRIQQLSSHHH

[4] = target: T2, Heat shock factor protein 1 (Mus musculus, UniProt P38532); experiment: inhibition of MG132-induced HSE-luciferase signal, confirmation, cell-based, NIH3T3, luminescence, dose retest (AID 2382); assay type: functional;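 note: NIH3T3 fibroblasts with HSF1-driven luciferase reporter stressed by proteasome inhibitor MG132; luminescence from HSF1-driven luciferase expression after 8 hours of MG132 stress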
T2 sequence (P38532 whole entry): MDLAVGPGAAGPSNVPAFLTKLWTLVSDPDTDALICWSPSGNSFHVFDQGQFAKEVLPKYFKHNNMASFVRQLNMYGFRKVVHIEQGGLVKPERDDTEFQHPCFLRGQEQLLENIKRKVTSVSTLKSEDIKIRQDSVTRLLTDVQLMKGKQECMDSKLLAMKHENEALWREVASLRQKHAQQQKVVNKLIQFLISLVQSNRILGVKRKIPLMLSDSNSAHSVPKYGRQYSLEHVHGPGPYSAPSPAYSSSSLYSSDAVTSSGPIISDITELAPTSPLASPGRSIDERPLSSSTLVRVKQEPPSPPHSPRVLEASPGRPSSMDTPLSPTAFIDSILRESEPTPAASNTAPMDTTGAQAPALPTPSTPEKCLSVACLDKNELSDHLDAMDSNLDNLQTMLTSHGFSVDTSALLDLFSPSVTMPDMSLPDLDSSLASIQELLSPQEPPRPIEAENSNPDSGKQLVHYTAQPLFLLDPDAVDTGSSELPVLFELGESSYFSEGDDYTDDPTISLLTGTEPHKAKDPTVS

[5] = target: T3, Zinc finger protein mex-5 (Caenorhabditis elegans, UniProt Q9XUB2); experiment: MEX-5/TCR-2 RNA interaction inhibitors, dose response, biochemical, C. elegans, fluorescence polarization (AID 1960)
T3 sequence (Q9XUB2 whole entry): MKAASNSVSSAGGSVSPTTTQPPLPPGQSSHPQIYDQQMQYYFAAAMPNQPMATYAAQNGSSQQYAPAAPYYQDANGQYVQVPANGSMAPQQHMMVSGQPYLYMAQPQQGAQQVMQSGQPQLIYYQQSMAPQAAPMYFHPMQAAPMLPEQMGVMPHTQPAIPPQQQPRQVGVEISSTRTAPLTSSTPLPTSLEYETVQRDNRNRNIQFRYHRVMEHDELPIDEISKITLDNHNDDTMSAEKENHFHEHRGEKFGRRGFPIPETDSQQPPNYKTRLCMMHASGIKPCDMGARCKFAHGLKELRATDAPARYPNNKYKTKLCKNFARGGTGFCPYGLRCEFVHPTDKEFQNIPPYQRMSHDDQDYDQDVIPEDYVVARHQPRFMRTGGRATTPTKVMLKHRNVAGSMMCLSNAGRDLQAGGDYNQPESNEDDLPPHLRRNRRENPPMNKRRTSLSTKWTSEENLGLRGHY

Cytochrome P450 2C19 = Cytochrome P450 2C19 (Homo sapiens, UniProt P33261); experiment: Cytochrome panel assay with activity outcomes. Panel member name: p450-cyp2c19 Compounds with AC50 equal or less than 10 uM are considered active; assay type: functional
[6] = target: T4, High affinity choline transporter 1 (Homo sapiens, UniProt Q9GZV3); experiment: CHT inhibitors, dose response, cell-based, 5-point CRC, membrane potential dye (AID 504840); assay type: functional
T4 sequence (Q9GZV3 whole entry): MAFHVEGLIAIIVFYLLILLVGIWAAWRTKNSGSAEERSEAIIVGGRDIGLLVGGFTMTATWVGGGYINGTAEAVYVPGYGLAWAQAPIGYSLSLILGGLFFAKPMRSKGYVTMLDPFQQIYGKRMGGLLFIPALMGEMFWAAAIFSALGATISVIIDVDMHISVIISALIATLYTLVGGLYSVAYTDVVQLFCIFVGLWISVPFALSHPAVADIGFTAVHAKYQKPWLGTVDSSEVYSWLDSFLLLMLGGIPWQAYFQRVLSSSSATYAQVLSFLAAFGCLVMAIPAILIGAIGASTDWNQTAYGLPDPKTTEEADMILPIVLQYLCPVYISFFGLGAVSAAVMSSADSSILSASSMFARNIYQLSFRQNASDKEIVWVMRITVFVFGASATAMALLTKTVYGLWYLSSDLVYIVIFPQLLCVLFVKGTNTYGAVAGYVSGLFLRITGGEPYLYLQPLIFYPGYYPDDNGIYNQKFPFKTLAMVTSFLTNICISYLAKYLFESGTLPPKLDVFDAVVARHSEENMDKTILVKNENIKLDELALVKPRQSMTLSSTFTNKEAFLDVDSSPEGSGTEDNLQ

Cytochrome P450 2D6 = Cytochrome P450 2D6 (Homo sapiens, UniProt P10635);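 note: CYP2D6 member of a cytochrome P450 panel assay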
[7] = THP-1 cell cytotoxicity, dose response, cytotoxicity control for non-replicating M. tuberculosis project (AID 489025); assay type: functional
cells = assay type: functional
INS1 = experiment: beta cell apoptosis inhibitors, cytokine rescue, dose response, luminescence, retest (AID 449756); assay type: functional, cell-based; details: Rattus norvegicus;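 note: cell death triggered by IL-1 beta plus TNF-alpha plus IFN-gamma mixture; protective hits raise ATP signal compared with cytokine alone wells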
Cytochrome P450 1A2 = target: T5, Cytochrome P450 1A2 (Homo sapiens, UniProt P05177);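 note: PubChem cytochrome P450 panel assay, CYP1A2 panel member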
T5 sequence (P05177 whole entry): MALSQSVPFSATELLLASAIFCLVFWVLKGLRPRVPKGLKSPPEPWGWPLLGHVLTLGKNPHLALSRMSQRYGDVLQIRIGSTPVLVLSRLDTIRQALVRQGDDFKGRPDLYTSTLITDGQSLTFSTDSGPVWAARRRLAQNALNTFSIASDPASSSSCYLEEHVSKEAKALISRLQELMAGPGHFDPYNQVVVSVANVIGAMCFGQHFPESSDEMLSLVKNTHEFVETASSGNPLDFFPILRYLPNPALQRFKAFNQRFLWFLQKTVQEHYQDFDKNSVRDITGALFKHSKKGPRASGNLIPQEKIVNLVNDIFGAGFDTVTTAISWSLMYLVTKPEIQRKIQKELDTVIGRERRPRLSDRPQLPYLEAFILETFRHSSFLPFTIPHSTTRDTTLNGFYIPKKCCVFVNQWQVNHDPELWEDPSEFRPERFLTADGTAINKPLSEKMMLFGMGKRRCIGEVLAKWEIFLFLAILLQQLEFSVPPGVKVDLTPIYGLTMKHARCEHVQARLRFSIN

Cytochrome P450 3A4 [8] = target: T6, Cytochrome P450 3A4 (Homo sapiens, UniProt P08684)
Cytochrome P450 3A4 [9] = target: T6, Cytochrome P450 3A4; details: Potency

5-hydroxytryptamine receptor 5A, sequence (P47898 whole entry): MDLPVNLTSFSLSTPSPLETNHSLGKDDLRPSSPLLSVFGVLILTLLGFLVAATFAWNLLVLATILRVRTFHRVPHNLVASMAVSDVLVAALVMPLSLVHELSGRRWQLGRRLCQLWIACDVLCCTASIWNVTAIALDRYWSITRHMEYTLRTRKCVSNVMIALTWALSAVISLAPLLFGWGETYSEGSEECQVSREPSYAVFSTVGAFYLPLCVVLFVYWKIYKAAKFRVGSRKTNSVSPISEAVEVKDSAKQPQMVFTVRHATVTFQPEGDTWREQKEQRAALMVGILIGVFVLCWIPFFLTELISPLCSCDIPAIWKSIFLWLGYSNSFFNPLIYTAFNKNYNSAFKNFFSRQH
Cytochrome P450 2C9, sequence (P11712 whole entry): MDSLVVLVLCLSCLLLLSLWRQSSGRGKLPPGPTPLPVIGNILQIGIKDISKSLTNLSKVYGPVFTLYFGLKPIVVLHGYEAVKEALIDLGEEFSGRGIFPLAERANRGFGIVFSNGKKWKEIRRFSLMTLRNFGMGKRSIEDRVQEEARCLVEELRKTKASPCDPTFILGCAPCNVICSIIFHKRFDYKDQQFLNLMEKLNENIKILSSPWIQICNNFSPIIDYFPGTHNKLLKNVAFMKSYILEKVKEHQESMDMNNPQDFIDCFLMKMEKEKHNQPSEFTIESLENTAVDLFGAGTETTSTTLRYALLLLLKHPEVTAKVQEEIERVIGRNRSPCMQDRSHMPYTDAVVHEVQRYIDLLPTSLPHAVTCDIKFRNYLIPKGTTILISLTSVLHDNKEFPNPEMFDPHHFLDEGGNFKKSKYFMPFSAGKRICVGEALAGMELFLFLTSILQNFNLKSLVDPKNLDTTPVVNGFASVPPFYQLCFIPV
Delta-type opioid receptor, sequence (P41143 whole entry): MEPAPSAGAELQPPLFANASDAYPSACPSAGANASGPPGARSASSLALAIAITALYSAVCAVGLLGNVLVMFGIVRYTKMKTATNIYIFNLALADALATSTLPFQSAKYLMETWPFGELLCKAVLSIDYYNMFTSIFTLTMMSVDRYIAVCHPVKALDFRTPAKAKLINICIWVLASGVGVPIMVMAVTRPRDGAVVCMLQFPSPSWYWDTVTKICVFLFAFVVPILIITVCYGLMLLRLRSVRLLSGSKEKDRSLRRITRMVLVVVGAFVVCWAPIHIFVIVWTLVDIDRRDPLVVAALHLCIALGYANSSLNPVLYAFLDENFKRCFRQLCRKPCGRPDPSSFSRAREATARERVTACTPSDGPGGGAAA
Nonstructural protein 1, sequence (Q194T2 whole entry, the tested form may be a part): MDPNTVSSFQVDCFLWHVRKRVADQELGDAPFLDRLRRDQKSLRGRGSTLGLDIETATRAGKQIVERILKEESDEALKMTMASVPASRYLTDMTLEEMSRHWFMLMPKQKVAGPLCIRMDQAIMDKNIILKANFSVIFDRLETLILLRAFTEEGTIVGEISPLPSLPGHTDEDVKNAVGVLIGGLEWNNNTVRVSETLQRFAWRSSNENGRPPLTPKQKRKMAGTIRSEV
T6 sequence (P08684 whole entry): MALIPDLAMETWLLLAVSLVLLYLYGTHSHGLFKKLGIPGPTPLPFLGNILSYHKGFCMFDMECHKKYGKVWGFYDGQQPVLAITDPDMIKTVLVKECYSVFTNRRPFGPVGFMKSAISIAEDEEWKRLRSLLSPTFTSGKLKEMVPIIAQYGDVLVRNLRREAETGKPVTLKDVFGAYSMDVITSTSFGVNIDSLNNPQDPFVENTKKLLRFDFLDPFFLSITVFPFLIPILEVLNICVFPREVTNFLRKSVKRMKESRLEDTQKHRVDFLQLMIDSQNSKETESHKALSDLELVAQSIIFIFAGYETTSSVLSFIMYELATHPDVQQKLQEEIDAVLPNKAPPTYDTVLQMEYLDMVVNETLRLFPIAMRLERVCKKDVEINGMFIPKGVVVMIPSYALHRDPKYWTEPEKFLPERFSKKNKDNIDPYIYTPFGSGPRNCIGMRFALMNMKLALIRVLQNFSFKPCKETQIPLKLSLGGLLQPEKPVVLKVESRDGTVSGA
Mu-type opioid receptor, sequence (P35372 whole entry): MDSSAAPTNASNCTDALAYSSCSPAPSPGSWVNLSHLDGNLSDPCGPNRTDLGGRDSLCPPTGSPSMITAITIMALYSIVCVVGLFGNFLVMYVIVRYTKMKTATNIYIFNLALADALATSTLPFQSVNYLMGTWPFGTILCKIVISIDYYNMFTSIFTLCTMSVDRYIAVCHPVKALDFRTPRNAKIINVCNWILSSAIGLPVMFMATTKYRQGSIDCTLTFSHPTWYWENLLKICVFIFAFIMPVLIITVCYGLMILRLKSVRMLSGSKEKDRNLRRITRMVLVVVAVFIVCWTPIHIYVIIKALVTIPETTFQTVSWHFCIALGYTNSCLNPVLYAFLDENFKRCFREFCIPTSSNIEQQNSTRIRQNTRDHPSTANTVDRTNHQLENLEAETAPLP
Cytochrome P450 2C19, sequence (P33261 whole entry): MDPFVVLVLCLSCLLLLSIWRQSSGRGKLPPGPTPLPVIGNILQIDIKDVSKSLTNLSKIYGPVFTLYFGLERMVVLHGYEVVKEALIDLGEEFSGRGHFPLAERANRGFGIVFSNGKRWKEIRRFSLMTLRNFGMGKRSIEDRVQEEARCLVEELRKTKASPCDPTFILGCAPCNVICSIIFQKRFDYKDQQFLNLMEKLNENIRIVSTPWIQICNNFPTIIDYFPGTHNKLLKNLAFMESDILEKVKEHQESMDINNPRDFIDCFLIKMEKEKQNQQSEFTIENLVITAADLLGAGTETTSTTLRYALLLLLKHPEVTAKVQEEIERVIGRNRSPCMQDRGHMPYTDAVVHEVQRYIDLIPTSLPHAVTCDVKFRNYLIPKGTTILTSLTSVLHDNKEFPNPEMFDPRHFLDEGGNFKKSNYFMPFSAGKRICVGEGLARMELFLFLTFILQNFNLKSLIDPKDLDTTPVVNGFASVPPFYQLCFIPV
Cytochrome P450 2D6, sequence (P10635 whole entry): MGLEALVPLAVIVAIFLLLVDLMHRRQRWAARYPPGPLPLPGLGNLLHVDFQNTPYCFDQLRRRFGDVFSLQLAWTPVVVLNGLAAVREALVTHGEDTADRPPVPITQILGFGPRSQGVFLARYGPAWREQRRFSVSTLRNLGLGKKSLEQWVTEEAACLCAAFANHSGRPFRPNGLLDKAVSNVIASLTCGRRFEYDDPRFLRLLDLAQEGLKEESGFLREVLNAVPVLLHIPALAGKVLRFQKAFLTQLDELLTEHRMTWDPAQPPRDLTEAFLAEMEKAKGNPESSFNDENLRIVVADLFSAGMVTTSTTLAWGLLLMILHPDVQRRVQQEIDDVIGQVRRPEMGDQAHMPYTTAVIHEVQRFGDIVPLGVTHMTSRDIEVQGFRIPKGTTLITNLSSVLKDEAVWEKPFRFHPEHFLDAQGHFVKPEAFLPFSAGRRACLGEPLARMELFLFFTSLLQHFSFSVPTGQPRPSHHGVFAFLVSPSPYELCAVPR

For `CCOC(=O)C1(CC2CCCCO2)CCN(Cc2nc(-c3cccs3)oc2C)CC1` (stereo not drawn), the EC50 (Mu-type opioid receptor) was > 92.5 µM (inactive), the EC50 [1] was > 92.5 µM (inactive) and the EC50 [2] was > 92.5 µM (inactive).
For `COCCNC(=O)C1CC(c2cccc(OC)c2)=NO1` (stereo not drawn), the AC50 (Cytochrome P450 2C9) was “inconclusive”.
With `CCc1ccc(NC(=O)Nc2ccc3c(c2)N(C)C(=O)CS3)cc1` the EC50 (Mu-type opioid receptor) was 36.7 µM (inactive), the EC50 [1] was > 92.5 µM (inactive) and the EC50 [2] was 35.7 µM (inactive).
For `Cc1ccc(CC(=O)NCC(c2ccco2)N(C)C)cc1C` (stereo not drawn), the EC50 (Mu-type opioid receptor) was > 92.4 µM (inactive), the EC50 [1] was > 92.4 µM (inactive) and the EC50 [2] was > 92.4 µM (inactive).
In the case of `O=C(N[C@H]1C/C=C\C[C@H](CC(=O)N(CCO)Cc2ccccc2)C(=O)N[C@H](Cc2c[nH]c3ccccc23)COC1=O)OCC1c2ccccc2-c2ccccc21`, the EC50 (Mu-type opioid receptor) was > 92.5 µM (inactive), the EC50 [1] was > 92.5 µM (inactive) and the EC50 [2] was > 92.5 µM (inactive).
In the case of `CN1CCN(CCC(=O)N/N=C/c2cc([N+](=O)[O-])ccc2O)CC1`, the IC50 (Nonstructural protein 1) was 17.3 µM (active).
In the case of `CC1(C)CC(=O)C2=C(C1)OC(N)=C(C#N)C2c1ccccc1` (stereo not drawn), the EC50 [3] was > 300 µM (not active), the EC50 [4] was > 195 µM (not active) and the EC50 [5] was > 300 µM (not active).
For `CC(=O)N/N=C/c1cc([N+](=O)[O-])ccc1OCCOc1ccccc1`, the AC50 (Cytochrome P450 2C19) was “inconclusive” and the AC50 (Cytochrome P450 2C9) was “inconclusive”.
For `COc1ccc(Cc2nnc(NN)nc2O)cc1OC`, the IC50 (Nonstructural protein 1) was 15.5 µM (active).
For `CC(=O)N1c2ccc(S(=O)(=O)NCCC(=O)NC3CCCC(C)C3C)cc2CC1C` (stereo not drawn), the IC50 [6] was 13.2 µM (active).
With `Cc1cc(Cl)ccc1OC(C)C(=O)Nc1ccc(S(=O)(=O)Nc2cnc3ccccc3n2)cc1` (stereo not drawn) the AC50 (Cytochrome P450 2C19; read-out: AC50) was 14.1 µM (inconclusive), the IC50 [6] was 13.8 µM (active) and the AC50 (Cytochrome P450 2D6) was 28.2 µM (inconclusive).
For `Cc1c2ccccc2nc2c(F)c(NC(C)C)c(F)c(F)c12`, the EC50 [3] was > 300 µM (not active) and the EC50 [5] was > 300 µM (not active).
For `CCOC(=O)c1c(C)c(C(=O)N2CCc3ccccc3C2)c(C)n1CC`, the IC50 [6] was 13.8 µM (active).
For `COC(=O)[C@@H]1[C@H]2C[C@H]3c4[nH]c5ccccc5c4CCN3C[C@@H]2CC[C@@H]1O` [YOHIMBINE], the EC50 [3] was > 300 µM (not active) and the EC50 [5] was 103 µM (active).
For `CCOc1cc(-c2sc(Nc3cc(C)ccc3OC)n[n+]2-c2ccccc2)ccc1OC`, the CC50 [7] was > 40 µM (active), the IC50 (cells) was > 50 µM (active) and the AC50 (INS1) was 12.9 µM (active).
With `CCCN(C(=O)c1cn(CC)c2nc(C)ccc2c1=O)c1c(N)n(Cc2ccccc2)c(=O)[nH]c1=O` the IC50 [6] was 12.6 µM (active).
For `COc1c2ccoc2nc2c(OC)c(OC[C@H](O)C(C)(C)O)ccc12`, the AC50 (Cytochrome P450 2C9) was “inconclusive”, the AC50 (Cytochrome P450 1A2) was 10 µM (inconclusive) and the AC50 (Cytochrome P450 3A4 [8]) was 15.8 µM (inconclusive).
For `CN(C)S(=O)(=O)Oc1ccccc1C(=O)Nc1cccc(C(F)(F)F)c1`, the AC50 (Cytochrome P450 2C9) was “inconclusive”.
In the case of `COc1ccc(CCCc2nc3ccccc3[nH]2)cc1`, the EC50 [3] was > 300 µM (not active) and the EC50 [5] was > 300 µM (not active).
With `O=C(NC(=S)NNC(=O)c1ccccc1O)c1cccc([N+](=O)[O-])c1` the IC50 (Nonstructural protein 1) was 15.3 µM (active).
In the case of `Cc1[nH]c2ccccc2c1-c1cc(-c2cc(-c3c(C)[nH]c4ccccc34)on2)no1`, the AC50 (Cytochrome P450 2C9) was “inconclusive”.
With `CC1=C(/C=C/C(C)=C/C=C/C(C)=C\C=O)C(C)(C)CCC1` the AC50 (Cytochrome P450 3A4 [9]) was 31.6 µM (inconclusive).
With `c1ccc2c(c1)ccc1ncccc12` the AC50 (Cytochrome P450 3A4 [9]) was 31.6 µM (inconclusive).
